# Earlier results in US12133849B2, “Method for treating cancer using a BCL-2 inhibitor in conjunction with an alpha- emitting radioimmunotherapeutic” (Actinium Pharmaceuticals, Inc., priority 2017, dated 2024).
smiles,measurement,value
CC1(C)CCC(CN2CCN(c3ccc(C(=O)NS(=O)(=O)c4ccc(NCC5CCOCC5)c([N+](=O)[O-])c4)c(Oc4cnc5[nH]ccc5c4)c3)CC2)=C(c2ccc(Cl)cc2)C1 [venetoclax],patients experiencing grade 3 and/or 4 neutropenia,40%
